A word on the pKd: it is −log10 of the Kd, conventionally taken in molar units.

pKd: −log10 of the molar value. Read-outs that look alike come from different tables or passages of the source. Square brackets hold non-standard residues; d marks the D form. Ends that are not written are not given here. Peptide text beside a SMILES is read from it. pS = N[C@@H](COP(=O)(O)O)C(=O)O

Test [1] deals with T1, HLA-A2 (Homo sapiens, UniProt P04439, D140Y/D185E/D98H/E176V/E277Q/G131W/G231S/I119V/I121R/I166T/I218V/L300P/L318F/N151K/N90K/P208A/P217A/Q86G/Q94H/R138H/R169H/T345S).
T1 construct: made in house
Description: Competitive peptide-MHC affinity assay (displacement of radiolabeled peptide). As to conditions: competitive binding, IC50 of displacement of radiolabeled peptide taken as approximation of Kd; 100,000-fold concentration range, each concentration in triplicate; W6/32 capture; read-out: Kd (pMHC affinity for HLA-A2). As to the method: HLA-A2 heavy chain was expressed in E. coli, refolded with β2M and the peptide […], and purified as described above. Competitive peptide binding assays were carried out as described. Test peptide concentrations covered a 100,000-fold range, with each concentration assayed in triplicate. MHC-peptide complexes were captured on microplates coated with monoclonal antibody W6/32 (to human HLA) and washed, and radioactivity quantified with a microscintillation counter. The concentration of test peptide that displaced 50% of the radiolabeled peptide (IC50) was calculated. In these conditions (in which the concentration of the label is less than the concentration of MHC and the IC50 is greater than or equal to the concentration of MHC), the IC50 is a reasonable approximation of the dissociation constant.

Test [2] relates to TCRpCDC25b. Description: SPR (BIAcore) TCR/peptide-MHC binding, HLA-A2-peptide complex injected over immobilised TCR. Further details: species or system mice. As to conditions: for specific binding of HLA-A2-peptide complex to immobilised TCRpCDC25b: responses compared with control surfaces (LDN5 and streptavidin), Figure 7A. An excerpt: Having established that phosphorylation has diverse effects on epitope structure, we aimed to test whether a phosphorylated epitope could be distinguished from its unmodified counterpart by the TCR. We previously generated phosphopeptide-specific CD8^+ T cells by immunising mice expressing a transgenic recombinant HLA-A*0201 molecule (AAD) with activated bone-marrow-derived dendritic cells pulsed with synthetic phosphopeptides corresponding to those naturally presented on the surface of human tumour cell lines. Despite the ability to isolate functional phosphopeptide specific T-cells, attempts to generate clonal populations of RQA_V specific T-cells for TCR isolation or produce soluble TCRs of sufficient quality from T-cell clones specific for PKD and RQI were unsuccessful. However we were able to generate soluble TCR (termed TCRpCDC25b) using cDNA sequences isolated from a T cell clone that recognised a phosphopeptide epitope derived from the CDC25b protein (GLLGpSPVRA, subsequently termed GLLGpS) of sufficient quality for surface plasmon resonance analysis.
To investigate if recognition was dependent on the GLLGS amino acid sequence, we also tested binding of immobilised TCRpCDC25b to HLA-A2 containing a different phosphopeptide featuring a p-Ser at position 5 (SLLTpSPPKA (termed SLLTpS) derived from Thyroid hormone receptor interacting protein 12). […] We then measured the strength of TCRpCDC25b phosphopeptide recognition by equilibrium affinity analysis, repeating injections of HLA-A2-GLLGpS over a range of concentrations (Figure 7B). […] In both orientations, the presence of low-level protein aggregates was evident at higher concentrations.
Experiments utilised a BIAcore 3000 and HBS-EP buffer, at a flow rate of 10 μl.min^−1. For HLA-peptide injections, recombinant TCRs were produced in the Drosophila expression system incorporating C-terminal biotinylation tags, biotinylated in vitro using BirA, and immobilised to streptavidin-coated CM5 surfaces. […] Data were analysed using BIAevaluation 3.1 and Origin graphing software.
For orientation: SPR reads the build-up and loss of mass on a sensor chip optically.

For test [3], the target named is T1, HLA-A2. The arrangement: method as in PMID 18836451. As to conditions: binding of peptide to HLA-A2, modified vs unmodified form; read-out: Kd (pMHC affinity for HLA-A2); cited from earlier work.

As to `CC[C@H](C)[C@H](NC(=O)[C@H](CO)NC(=O)[C@H](C)NC(=O)[C@H](CCC(N)=O)NC(=O)[C@@H](N)CCCNC(=N)N)C(=O)N[C@@H](CCC(=O)O)C(=O)N[C@@H](CC(C)C)C(=O)N1CCC[C@H]1C(=O)N[C@@H](CO)C(=O)N[C@@H](CCSC)C(=O)N[C@@H](C)C(=O)N[C@H](C(=O)O)C(C)C` [RQA_Vnp], the pKd in test [1] was 7.59. On to `CC[C@H](C)[C@H](NC(=O)[C@H](COP(=O)(O)O)NC(=O)[C@H](C)NC(=O)[C@H](CCC(N)=O)NC(=O)[C@@H](N)CCCNC(=N)N)C(=O)N[C@@H](CCC(=O)O)C(=O)N[C@@H](CC(C)C)C(=O)N1CCC[C@H]1C(=O)N[C@@H](CO)C(=O)N[C@@H](CCSC)C(=O)N[C@@H](C)C(=O)N[C@H](C(=O)O)C(C)C` [RQA_Vp], for which the pKd in test [1] is 7.22.

As to `CC[C@H](C)[C@H](NC(=O)[C@H](CCC(N)=O)NC(=O)[C@@H](N)CCCNC(=N)N)C(=O)N[C@@H](COP(=O)(O)O)C(=O)N[C@@H](CCC(N)=O)C(=O)N[C@@H](CC(=O)O)C(=O)N[C@H](C(=O)N[C@@H](CCCCN)C(=O)N[C@@H](CC(C)C)C(=O)O)C(C)C` [RQIp] (H-RQI[pS]QDVKL-OH), the pKd in test [1] was 7.59. Turning to GLLGpSPVRA, the “specific binding of HLA-A2-peptide complex to immobilised TCRpCDC25b” value in test [2] is “specific binding”. The pKd in test [2] (two independent equilibrium analyses, once in either orientation, Scatchard analyses and hyperbolic fitting, read-out: Kd values from both orientations (range)) is 4.39 to 4.46. “RQApSLSISV [PKD2p, canonical phosphopeptide antigen derived from Protein Kinase D2]”: the pKd in test [3] was 7.41. With RQISQDVKL [RQInp], in test [1], the pKd is 5.72.

Take SLLTpSPPKA [reference compound]: the “specific binding of HLA-A2-peptide complex to immobilised TCRpCDC25b” value in test [2] is “identical responses over TCRpCDC25b and control surfaces”.

Values taken from article PMC5589570, “The antigenic identity of human class I MHC phosphopeptides is critically dependent upon phosphorylation status” (Oncotarget, 2017).
